Series [1] relates to mitogen-induced murine spleen lymphocytes. Type of series: cell-based. The conditions noted are these: mouse spleen lymphocytes. The protocol:
Mouse spleen lymphocytes were isolated from C57B1/6J mice by teasing tissues on a metallic sieve screen. […] Two hundred (200) μl isolated cells were then seeded in separate wells of a 96-well flat-bottom tissue culture plate at a density of 2×10^5 cells per well. […] After 72 hours incubation in a humidified atmosphere at 37° C. and 5% CO2, a solution of resazurin PBS was added to a final concentration 10 μM, and the plates were returned to the incubator for another 24 hours. Resazurin is a substrate which changes color in response to metabolic activity (such as, living cells). […] LC50 values were determined from plots of florescence versus drug concentration using non-linear regression by Prism software.

The nature of the next series: Water solubility. In kind it is physicochemical.
The nature of series [2]: Adverse side effects in treated mice of the 4-day suppressive test. In kind it is in vivo. To be noted: 64, 32, 16 mg/kg oral gavage once per day for four days; CF-1 mice. An excerpt:
A variation of the 4-day suppressive test described by Peters (Ann. Trop. Med. Parasitol., 69(2):155-171, 1975) was used to test the in vivo effectiveness of RCQ_02 as a treatment for Plasmodium sp. infection. Briefly, P. chabaudi parasites (Mackinnon and Read, Philos. Trans. R. Soc. Lond. B Biol. Sci., 359:965-986, 2004) were collected from a donor animal harboring approximately 20% parasitemia. Sixteen (16) male CF-1 mice at 4-5 weeks of age (approximately 20 g) were infected with approximately 10^7 infected red blood cells via 100 μL tail vein injection. The infected mice were randomly sorted into groups of 4 mice each on day 0. One hour after infection, each group of four mice received 64, 32, 16, or 0 mg/kg RCQ_02 via oral gavage once per day for four days. After the treatment course, the animals were weighed and blood collected for the determination of parasite burden via direct microscopic analysis of Giemsa-stained blood smears. Mice treated with 64 mg/kg RCQ_02 were all cleared of parasites to >99% by day 4.

For series [3], the target named is T1, recombinant human dopamine (HEK-hDAT) transporter (Homo sapiens, UniProt Q01959).
T1 construct: expressed in transfected cells; host or cells: HEK cells expressing hDAT (HEK-hDAT)
T1 sequence (Q01959 whole entry): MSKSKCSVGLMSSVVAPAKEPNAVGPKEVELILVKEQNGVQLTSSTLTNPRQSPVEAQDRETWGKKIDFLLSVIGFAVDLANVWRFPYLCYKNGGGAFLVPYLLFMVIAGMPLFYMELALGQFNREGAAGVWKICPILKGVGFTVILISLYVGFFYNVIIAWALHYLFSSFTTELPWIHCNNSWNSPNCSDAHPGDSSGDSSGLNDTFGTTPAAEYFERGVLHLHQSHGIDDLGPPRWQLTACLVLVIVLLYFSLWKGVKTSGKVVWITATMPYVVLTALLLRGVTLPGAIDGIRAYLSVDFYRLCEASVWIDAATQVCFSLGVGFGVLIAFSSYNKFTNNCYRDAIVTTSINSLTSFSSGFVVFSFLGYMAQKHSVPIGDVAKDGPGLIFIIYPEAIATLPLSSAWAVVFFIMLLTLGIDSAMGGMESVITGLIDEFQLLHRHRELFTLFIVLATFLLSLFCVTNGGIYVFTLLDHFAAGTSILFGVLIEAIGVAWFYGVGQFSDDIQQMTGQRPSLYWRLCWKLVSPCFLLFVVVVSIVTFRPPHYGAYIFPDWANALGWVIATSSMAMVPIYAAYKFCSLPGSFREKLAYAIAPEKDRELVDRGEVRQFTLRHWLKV
Briefly: Inhibition of [3H]neurotransmitter uptake, hDAT. Type of series: cell-based. The protocol:
(§1) Selected RCQs were tested for inhibition of [^3H]neurotransmitter uptake by the recombinant human serotonin (hSERT), dopamine (HEK-hDAT), and norepinephrine (hNET) transporters by a modification of the method of Eshleman et al. (J. Pharmacol. Exp. Ther., 289(2):877-885, 1999). HEK-hDAT, hSERT, and -hNET expressing cells were grown on tissue culture dishes. After removing the medium and washing the plates with Ca^2+-, Mg^2+-free phosphate buffered saline (PBS), fresh medium was added and the plates were placed in a 25° C. water bath for 5 minutes. Cells were gently lifted from the plates and cell clusters separated by trituration. 50 μL aliquots of the suspended cells were added to assay tubes containing drugs and Krebs-HEPES assay buffer in a final volume of 0.5 mL.
(§2) Competition experiments were conducted in triplicate. After a 10 minute preincubation period at 25° C., [^3H]neurotransmitter (20 nM final concentration; [^3H]DA, [^3H]5-HT, or [^3H]NE) were added, and the mixtures incubated for 10 minutes. Reactions were terminated by filtration through Wallac filtermat A filters (presoaked in 0.05% polyethylenimine), using a Tomtec cell harvester. Scintillation fluid was added to each filtered spot, and radioactivity remaining on the filters determined using a Wallac 1205 Betaplate scintillation counter.
(§3) Specific uptake was defined as the difference in uptake observed in the absence and presence of 5 μM mazindol (hDAT and hNET) or 5 μM imipramine (hSERT). Inhibition of uptake was determined by non-linear regression using Prism software.

Series [4] deals with T2, recombinant human norepinephrine (hNET) transporter (Homo sapiens, UniProt P23975).
T2 construct: expressed in transfected cells; host or cells: HEK cells expressing hNET
T2 sequence (P23975 whole entry): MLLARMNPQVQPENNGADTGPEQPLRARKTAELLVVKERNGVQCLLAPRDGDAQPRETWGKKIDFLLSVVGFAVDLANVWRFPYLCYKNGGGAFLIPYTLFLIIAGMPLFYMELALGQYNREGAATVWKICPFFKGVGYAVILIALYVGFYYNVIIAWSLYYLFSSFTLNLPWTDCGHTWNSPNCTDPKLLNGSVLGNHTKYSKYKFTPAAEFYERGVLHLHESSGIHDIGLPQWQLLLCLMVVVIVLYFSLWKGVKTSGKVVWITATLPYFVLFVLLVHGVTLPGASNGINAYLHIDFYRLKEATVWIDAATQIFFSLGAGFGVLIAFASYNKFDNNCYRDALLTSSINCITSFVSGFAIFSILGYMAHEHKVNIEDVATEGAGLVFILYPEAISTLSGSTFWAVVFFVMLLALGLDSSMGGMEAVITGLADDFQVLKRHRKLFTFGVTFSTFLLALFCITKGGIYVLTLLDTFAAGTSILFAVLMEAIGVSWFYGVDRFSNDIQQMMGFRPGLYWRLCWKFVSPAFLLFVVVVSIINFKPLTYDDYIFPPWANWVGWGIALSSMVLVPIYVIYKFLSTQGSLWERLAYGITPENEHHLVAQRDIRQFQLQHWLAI
Briefly: Inhibition of [3H]neurotransmitter uptake, hNET. In kind it is cell-based. The procedure:
as §1, §2, §3

For series [5], the target named is T3, recombinant human serotonin (hSERT) transporter (Homo sapiens, UniProt P31645).
T3 construct: expressed in transfected cells; host or cells: HEK cells expressing hSERT
T3 sequence (P31645 whole entry): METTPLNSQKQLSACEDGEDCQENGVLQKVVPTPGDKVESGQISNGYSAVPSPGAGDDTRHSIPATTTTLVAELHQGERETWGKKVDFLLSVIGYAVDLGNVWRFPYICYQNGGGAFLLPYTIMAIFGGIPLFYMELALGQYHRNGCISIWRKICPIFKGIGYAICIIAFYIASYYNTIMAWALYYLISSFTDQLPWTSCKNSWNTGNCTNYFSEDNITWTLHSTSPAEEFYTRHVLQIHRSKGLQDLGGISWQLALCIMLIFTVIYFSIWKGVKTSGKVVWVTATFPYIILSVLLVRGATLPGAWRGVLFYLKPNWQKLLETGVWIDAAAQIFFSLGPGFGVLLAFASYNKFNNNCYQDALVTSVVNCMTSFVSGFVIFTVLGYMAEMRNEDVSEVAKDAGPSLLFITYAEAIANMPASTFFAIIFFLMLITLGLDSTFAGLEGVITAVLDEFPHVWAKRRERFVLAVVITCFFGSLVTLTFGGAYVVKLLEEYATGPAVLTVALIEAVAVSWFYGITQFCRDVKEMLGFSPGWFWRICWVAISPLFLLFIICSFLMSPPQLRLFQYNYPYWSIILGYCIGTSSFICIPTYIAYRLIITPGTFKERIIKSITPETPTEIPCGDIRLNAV
The series can be described thus: Inhibition of [3H]neurotransmitter uptake, hSERT. In kind it is cell-based. The protocol:
as §1, §2, §3

For the next series, the system named is P. chabaudi parasites. The series can be described thus: 4-day suppressive test in infected mice. Type of series: in vivo. To be noted: 64 mg/kg oral gavage once per day for four days; male CF-1 mice; by day 4. The text has this:
Antimalarial compounds can also be tested for efficacy in vivo. One non-limiting exemplary method for performing such testing is the 4-day suppressive test (Peters, Ann. Trop. Med. Parasitol., 69(2):155-171, 1975). Briefly, such test involves collecting P. chabaudi (Mackinnon and Read, Philos. Trans. R. Soc. Lond. B Biol. Sci., 359:965-986, 2004; Mackinnon et al., Exp. Parasitol., 101 (2-3):121-128, 2002) from a donor animal harboring ˜20% parasitemia. Male CF-1 mice at 4-5 weeks of age (˜20 g) are infected with ˜10^7 infected red blood cells via 100 μL tail vein injection and randomly sorted into groups of 4 mice each on day 0. One hour after infection, the mice receive the test agent via oral gavage, or by the intraperitoneal route (at approximately 1-10 times the in vitro IC50 values). Drugs are administered once daily for at least 4 days beginning at day 0. […] Efficacy of a tested compound in this bioassay is measured by inhibition of parasite growth as defined previously. […]
A variation of the 4-day suppressive test described by Peters (Ann. Trop. Med. Parasitol., 69(2):155-171, 1975) was used to test the in vivo effectiveness of RCQ_02 as a treatment for Plasmodium sp. infection. Briefly, P. chabaudi parasites (Mackinnon and Read, Philos. Trans. R. Soc. Lond. B Biol. Sci., 359:965-986, 2004) were collected from a donor animal harboring approximately 20% parasitemia. […]

With `CN(CCCNc1ccnc2cc(Cl)ccc12)CCCN1c2ccccc2CCc2ccccc21` [RCQ_02, N′-(7-Chloro-quinolin-4-yl)-N-[3-(10,11-dihydro-dibenzo[b,f]azepin-5-yl)-propyl]-N-methyl-propane-1,3-diamine], the “Cytotoxicity” value in series [1] (LC50, 72 hours + 24 hours resazurin) turned out to be 700 nM. This molecule also displayed a cytotoxicity values in series [1] (Table 14) of 700 nM. For the same molecule, in the series “Water solubility”, the water solubility entry is “relatively low water solubility”. Further, the “adverse side effects (weight loss, reduced eating, reduced activity, ruffled ungroomed fur)” value in series [2] was “none of the treated mice showed any adverse side effects”. In addition, the IC50 in series [3] stood at 2200 nM; in series [4], 350 nM; in series [5], 230 nM. For the same molecule, the cleared of parasites in the series on P. chabaudi parasites is recorded as > 99%.

As a reminder, the IC50 is the midpoint of a concentration-inhibition curve.

For the origin of these results see patent US9493420B2, “Quinoline derivatives and uses thereof” (Portland State University, priority 2005, dated 2016).
